Ends that are not written are not given here.
Legend:
[1] = target: T1, recombinant human PEDF-R[1–288] (Homo sapiens, UniProt Q96AD5); test: Phospholipase A2 (PLA2) activity assay of PEDF-R with peptides; type: biochemical; conditions: purified recombinant PEDF-R[1–288] 60 nM; peptides preincubated 30 min at room temperature; EnzChek PLA2 kit; six replicate reactions
T1 construct: SUMOstar (N); His tag (implied by HisTrap purification; part of the pE-SUMOstar vector) (N); TwinStrep (C); made in house; host or cells: Escherichia coli Rosetta(DE3), co-transformed with pGro7 (groES-groEL)
T1 sequence (Q96AD5 1-288): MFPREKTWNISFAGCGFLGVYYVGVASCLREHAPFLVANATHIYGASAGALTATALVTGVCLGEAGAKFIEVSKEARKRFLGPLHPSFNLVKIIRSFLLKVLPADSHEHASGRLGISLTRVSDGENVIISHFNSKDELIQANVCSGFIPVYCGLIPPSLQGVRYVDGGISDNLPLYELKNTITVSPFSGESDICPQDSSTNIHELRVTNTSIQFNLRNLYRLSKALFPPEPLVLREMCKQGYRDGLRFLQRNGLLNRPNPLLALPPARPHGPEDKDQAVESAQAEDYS
From the text: Fig. 1: Penetration and Bioavailability of PEDF Peptides 17-mer, H105A, and R99A Delivered via Eye Drops in Mouse Retinas (A) Peptide mapping and sequence. Tertiary structure of human PEDF highlighting the small peptide region with neurotrophic activity (17-mer) in blue (top). Primary structure of human PEDF showing the location of the 17-mer region (middle). Sequences of the 17-mer peptide and its variants, H105A and R99A (bottom). (B) In vivo detection of peptides. Fundus micrographs showing fluorescence from Alexa Fluor 488-labeled 17-mer, H105A, and R99A peptides in the eyes of C57Bl/6J mice at P21 days after eye drop administration of 5 μl of peptide at 1 mg/ml (left). […] Quantification of fluorescence intensity over time post-administration (right). […] (C) Quantification of peptide in retinas. […] The amount of peptide was quantified from the fluorescence in retinal extracts using standard curves (Fig. S6A). […] (D) Retinal cross-sections showing fluorescence distribution in the photoreceptor layer 1 hour after applying eye drops as in Panel B. Representative images for labeled 17-mer, H105A, and R99A peptides are shown, with magnified areas of 17-mer and H105A indicated by dotted rectangles. […] (F) Effects of 17-mer, H105A, and R99A peptides on the PLA2 activity of PEDF-R. Peptides were preincubated with recombinant human PEDF-R[1–288] for 30 min, and PLA2 activity was measured. […]

[2] = Stability of peptide H105A against temperature (Table S2); type: physicochemical
Experimental: Lyophilized peptides were dissolved in sterile HBSS at 1 mg/ml and stored at −20 °C. Before the peptides were used, the peptide solution was brought to room temperature and subjected to centrifugation (Eppendorf, Centrifuge 5430R) at 20,800 g for 10 min at 4°C to clear and separate particulate material. In case a precipitate was found, the pH of the solution was adjusted to neutral pH with either NaOH or HCl and all peptides were soluble. The concentration of peptide solutions was determined using spectrophotometry (NanoDrop, Thermo Fisher Scientific).
Table S2. Stability of 17-mer[H105A] peptide.
Concentration (mg/mL) Store Concentration (mg/mL)
*FT, Freeze and thaw cycles daily

Sequence | stimulation of PLA2 activity of PEDF-R [1] | Concentration Day1 ([2]; sample 1, before storage at RT, peptide solution, spectrophotometry (NanoDrop)) [µg/mL] | Concentration Day1 ([2]; sample 2, before storage at 4°C) [µg/mL] | Concentration Day1 ([2]; sample 3, before storage at -20°C) [µg/mL] | Concentration Day1 ([2]; sample 4, before storage at -20°C [FT]) [µg/mL]
QRTESIIARALYYDLIS [H105A] | capable of stimulating its PLA2 activity | 1040 | 1040 | 1040 | 1040
QRTESIIHRALYYDLIS [17-mer] | capable of stimulating its PLA2 activity |  |  |  | 

— article doi:10.1101/2024.07.10.602890, “H105A peptide eye drops promote photoreceptor survival in murine and human models of retinal degeneration” (bioRxiv, 2024)
